Data reported in patent US7314958B2, “Phenylbenzamides” (Bayer CropScience AG, priority 2002, dated 2008).

What was measured:
Alternaria solani = test: Alternaria test (tomato)/protective; format: in vivo; conditions: 168 h, comparative experiment, application rate 500 ppm, read-out: Example D Alternaria test (tomato) protective efficacy in %
Method: Alternaria Test (Tomato)/Protective • Solvent: 49 parts by weight of N,N-dimethylformamide • Emulsifier: 1 part by weight of alkylaryl polyglycol ether To produce a suitable preparation of active compound, 1 part by weight of active compound is mixed with the stated amounts of solvent and emulsifier, and the concentrate is diluted with water to the desired concentration. To test for protective activity, young tomato plants are sprayed with the preparation of active compound at the stated application rate. 1 day after the treatment, the plants are inoculated with an aqueous spore suspension of Alternaria solani and then remain at 100% relative atmospheric humidity for 24 hours. The plants are then kept at about 96% relative atmospheric humidity and a temperature of 20° C. Evaluation is carried out 7 days after the inoculation. 0% means an efficacy which corresponds to that of the control, whereas an efficacy of 100% means that no infection is observed. The compounds were tested in comparative experiments according to use examples A [Spaerotheca test (cucumber)/protective], D [Alternaria test (tomato)/protective] and E [Erysiphe test (barley)/protective]. In each case, the application rate was 500 ppm.

[1] = logP determination by HPLC, reversed-phase column (C 18), acidic range; format: physicochemical; conditions: pH 2.3, 0.1% aqueous phosphoric acid/acetonitrile, 43° C.
Method: The logP values given in the Preparation Examples were determined in accordance with EEC Directive 79/831 Annex V.A8 by HPLC (High Performance Liquid Chromatography) using a reversed-phase column (C 18). Temperature: 43° C. Mobile phases for the determination in the acidic range: 0.1% aqueous phosphoric acid, acetonitrile; linear gradient from 10% acetonitrile to 90% acetonitrile. Calibration was carried out using unbranched alkan-2-ones (having 3 to 16 carbon atoms) with known logP values (determination of the logP values by the retention times using linear interpolation between two successive […]).

Sphaerotheca fuliginea [2] = test: Sphaerotheca test (cucumber)/protective; format: in vivo; conditions: Podosphaera fuliginea, 168 h; comparative experiment; application rate 500 ppm; read-out: Example A Spaerotheca test (cucumber) protective efficacy in %
Method: Sphaerotheca Test (Cucumber)/Protective
• Solvents: 24.5 parts by weight of acetone 24.5 parts by weight of dimethylacetamide • Emulsifier: 1 part by weight of alkylaryl polyglycol ether
(§1) To produce a suitable preparation of active compound, 1 part by weight of active compound is mixed with the stated amounts of solvent and emulsifier, and the concentrate is diluted with water to the desired concentration.
To test for protective activity, young plants are sprayed with the preparation of active compound at the stated application rate. After the spray coating has dried on, the plants are inoculated with an aqueous spore suspension of Sphaerotheca fuliginea. The plants are then placed in a greenhouse at about 23° C. and a relative atmospheric humidity of about 70%.
Evaluation is carried out 7 days after the inoculation. 0% means an efficacy which corresponds to that of the control, whereas an efficacy of 100% means that no infection is observed.
The compounds were tested in comparative experiments according to use examples A [Spaerotheca test (cucumber)/protective], D [Alternaria test (tomato)/protective] and E [Erysiphe test (barley)/protective].
In each case, the application rate was 500 ppm.

[3] = system: Erysiphe graminis f. sp. hordei; test: Erysiphe test (barley)/protective; format: in vivo; conditions: Blumeria graminis, 168 h; comparative experiment; application rate 500 ppm; read-out: Example E Erysiphe test (barley) protective efficacy in %
Method: Erysiphe Test (Barley)/Protective • Solvent: 49 parts by weight of N,N-dimethylformamide • Emulsifier: 1 part by weight of alkylaryl polyglycol ether To produce a suitable preparation of active compound, 1 part by weight of active compound is mixed with the stated amounts of solvent and emulsifier, and the concentrate is diluted with water to the desired concentration. To test for protective activity, young cereal plants are sprayed with the preparation of active compound at the stated application rate. 1 day after the treatment, the plants are inoculated with spores of Erysiphe graminis f. sp. hordei. The plants are then placed in a greenhouse at 70% relative atmospheric humidity and a temperature of 18° C. Evaluation is carried out 7 days after the inoculation. 0% means an efficacy which corresponds to that of the control, whereas an efficacy of 100% means that no infection is observed. The compounds were tested in comparative experiments according to use examples A [Spaerotheca test (cucumber)/protective], D [Alternaria test (tomato)/protective] and E [Erysiphe test (barley)/protective]. In each case, the application rate was 500 ppm.

Sphaerotheca fuliginea [4] = test: Sphaerotheca test (cucumber)/protective; format: in vivo; conditions: protective, application rate 100 g/ha, evaluation 7 days after inoculation
Venturia inaequalis = test: Venturia test (apple)/protective; format: in vivo; conditions: protective, application rate 100 g/ha, evaluation 10 days after inoculation
Method: Venturia Test (Apple)/Protective
• Solvents: 24.5 parts by weight of acetone 24.5 parts by weight of dimethylacetamide • Emulsifier: 1.0 part by weight of alkylaryl polyglycol ether
as §1
To test for protective activity, young plants are sprayed with the preparation of active compound at the stated application rate. After the spray coating has dried on, the plants are inoculated with an aqueous conidia suspension of the apple scab pathogen Venturia inaequalis and then remain in an incubation cabin at about 20° C. and 100% relative atmospheric humidity for 1 day.
The plants are then placed in a greenhouse at about 21° C. and a relative atmospheric humidity of about 90%.
Evaluation is carried out 10 days after the inoculation. 0% means an efficacy which corresponds to that of the control, whilst an efficacy of 100% means that no infection is observed.

Botrytis cinerea = test: Botrytis test (bean)/protective; format: in vivo; conditions: protective, application rate 500 g/ha, evaluation 2 days after inoculation
Method: Botrytis Test (Bean)/Protective • Solvent: 49 parts by weight of N,N-dimethylformamide • Emulsifier: 1 part by weight of alkylaryl polyglycol ether To produce a suitable preparation of active compound, 1 part by weight of active compound is mixed with the stated amounts of solvent and emulsifier, and the concentrate is diluted with water to the desired concentration. To test for protective activity, young plants are sprayed with the preparation of active compound at the stated application rate. After the spray coating has dried on, 2 small pieces of agar colonized by Botrytis cinerea are placed onto each leaf. The inoculated plants are placed in a dark chamber at about 20° C. and 100% relative atmospheric humidity. 2 days after the inoculation, the size of the infected areas on the leaves is evaluated. 0% means an efficacy which corresponds to that of the control, whereas an efficacy of 100% means that no infection is observed.

Puccinia recondita = test: Puccinia test (wheat)/protective; format: in vivo; conditions: 240 h, protective, application rate 500 g/ha, evaluation 10 days after inoculation, read-out: Efficacy in %
Method: Puccinia Test (Wheat)/Protective • Solvent: 25 parts by weight of N,N-dimethylacetamide • Emulsifier: 0.6 part by weight of alkylaryl polyglycol ether To produce a suitable preparation of active compound, 1 part by weight of active compound is mixed with the stated amounts of solvent and emulsifier, and the concentrate is diluted with water to the desired concentration. To test for protective activity, young plants are inoculated with a spore suspension of Puccinia recondita in a 0.1% strength aqueous agar solution. After the spray coating has dried on, the plants are sprayed with the preparation of active compound at the stated application rate. The plants remain in an incubation cabin at 20° C. and 100% relative atmospheric humidity for 24 hours. The plants are then placed in a greenhouse at a temperature of about 20° C. and a relative atmospheric humidity of 80% to promote the development of rust pustules. Evaluation is carried out 10 days after the inoculation. 0% means an efficacy which corresponds to that of the control, whereas an efficacy of 100% means that no infection is observed.

SMILES: CC(C)CC(C)c1ccccc1NC(=O)c1ccccc1C(F)(F)F (centres unmarked) [Example 2, N-[2-(1,3-dimethylbutyl)phenyl]-2-(trifluoromethyl)benzamide]
- pest or weed control at 500 ppm (Alternaria solani): 95%
- chromatographic logP [1]: 4.09
- pest or weed control at 500 ppm (Sphaerotheca fuliginea [2]): 100%
- pest or weed control at 500 ppm [3]: 90%

SMILES: CC(C)CC(C)c1ccccc1NC(=O)c1ccccc1I (centres unmarked) [Example 3, N-[2-(1,3-dimethylbutyl)phenyl]-2-iodobenzamide]
- pest or weed control at 500 ppm (Alternaria solani): 95%
- chromatographic logP [1]: 4.12
- pest or weed control at 500 ppm (Sphaerotheca fuliginea [2]): 100%
- pest or weed control at 500 ppm [3]: 95%

SMILES: CC(C)CC(C)c1ccccc1NC(=O)c1ccccc1Cl (centres unmarked) [Example 4, N-[2-(1,3-dimethylbutyl)phenyl]-2-chlorobenzamide]
- chromatographic logP [1]: 3.98

SMILES: CC(C)CC(C)c1ccccc1NC(=O)c1ccccc1Br (centres unmarked) [Example 5, N-[2-(1,3-dimethylbutyl)phenyl]-2-bromobenzamide]
- pest or weed control at 500 ppm (Alternaria solani): 90%
- chromatographic logP [1]: 4.01
- pest or weed control at 500 ppm (Sphaerotheca fuliginea [2]): 95%
- pest or weed control at 500 ppm [3]: 30%

SMILES: CC(CC(C)(C)C)c1ccccc1NC(=O)c1ccccc1C(F)(F)F (centres unmarked) [Example 6, 2-(trifluoromethyl)-N-[2-(1,3,3-trimethylbutyl)phenyl]benzamide]
- chromatographic logP [1]: 4.36

SMILES: CC(CC(C)(C)C)c1ccccc1NC(=O)c1ccccc1Cl (centres unmarked) [Example 7, 2-chloro-N-[2-(1,3,3-trimethylbutyl)phenyl]benzamide]
- chromatographic logP [1]: 4.25

SMILES: CC(CC(C)(C)C)c1ccccc1NC(=O)c1ccccc1Br (centres unmarked) [Example 8, 2-bromo-N-[2-(1,3,3-trimethylbutyl)phenyl]benzamide]
- chromatographic logP [1]: 4.29

SMILES: CC(CC(C)(C)C)c1ccccc1NC(=O)c1ccccc1I (centres unmarked) [Example 9, 2-iodo-N-[2-(1,3,3-trimethylbutyl)phenyl]benzamide]
- chromatographic logP [1]: 4.4

SMILES: CCC(C)(C)CC(C)c1ccccc1NC(=O)c1ccccc1I (centres unmarked) [Example 10, (2-iodophenyl)-N-[2-(1,3,3-trimethylpentyl)phenyl]carboxamide]
- chromatographic logP [1]: 4.71

SMILES: CCC(C)(C)CC(C)c1ccccc1NC(=O)c1ccccc1C(F)(F)F (centres unmarked) [Example 11, [2-(trifluoromethyl)phenyl]-N-[2-(1,3,3-trimethylpentyl)phenyl]carboxamide]
- chromatographic logP [1]: 4.68

SMILES: CCC(C)(C)CC(C)c1ccccc1NC(=O)c1ccccc1Cl (centres unmarked) [Example 12, (2-chlorophenyl)-N-[2-(1,3,3-trimethylpentyl)phenyl]carboxamide]
- chromatographic logP [1]: 4.6

SMILES: CCC(C)(C)CC(C)c1ccccc1NC(=O)c1ccccc1Br (centres unmarked) [Example 13, (2-bromophenyl)-N-[2-(1,3,3-trimethylpentyl)phenyl]carboxamide]
- chromatographic logP [1]: 4.63

SMILES: CCCCc1ccccc1NC(=O)c1ccccc1I [No.14.3(p. 42)]
- pest or weed control at 500 ppm (Alternaria solani): 0%
- pest or weed control at 500 ppm (Sphaerotheca fuliginea [2]): 0%
- pest or weed control at 500 ppm [3]: 0%

SMILES: CCC(C)c1ccccc1NC(=O)c1ccccc1I (centres unmarked) [No.14.4(p. 42)]
- pest or weed control at 500 ppm (Alternaria solani): 10%
- pest or weed control at 500 ppm (Sphaerotheca fuliginea [2]): 10%
- pest or weed control at 500 ppm [3]: 20%

SMILES: CCCCCCc1ccccc1NC(=O)c1ccccc1I [No.14.9(p. 42)]
- pest or weed control at 500 ppm (Alternaria solani): 0%
- pest or weed control at 500 ppm (Sphaerotheca fuliginea [2]): 0%
- pest or weed control at 500 ppm [3]: 0%

SMILES: CCCCc1ccccc1NC(=O)c1ccccc1C(F)(F)F [No. 6.3(p. 24)]
- pest or weed control at 500 ppm (Alternaria solani): 0%
- pest or weed control at 500 ppm (Sphaerotheca fuliginea [2]): 10%
- pest or weed control at 500 ppm [3]: 10%

SMILES: CCC(C)c1ccccc1NC(=O)c1ccccc1C(F)(F)F (centres unmarked) [No. 6.4(p. 24)]
- pest or weed control at 500 ppm (Alternaria solani): 30%
- pest or weed control at 500 ppm (Sphaerotheca fuliginea [2]): 30%
- pest or weed control at 500 ppm [3]: 0%

SMILES: CCCCCCc1ccccc1NC(=O)c1ccccc1C(F)(F)F [No. 6.9(p. 24)]
- pest or weed control at 500 ppm (Alternaria solani): 0%
- pest or weed control at 500 ppm (Sphaerotheca fuliginea [2]): 0%
- pest or weed control at 500 ppm [3]: 0%

SMILES: CC(C)CC(C)c1ccccc1NC(=O)c1ccccc1C(F)(F)F (centres unmarked) [drawing 10]
- Efficacy in % (Sphaerotheca fuliginea [4]): 100%

SMILES: CC(C)CC(C)c1ccccc1NC(=O)c1ccccc1I (centres unmarked) [drawing 11]
- Efficacy in % (Sphaerotheca fuliginea [4]): 100%

SMILES: CC(C)CC(C)c1ccccc1NC(=O)c1ccccc1C(F)(F)F (centres unmarked) [drawing 12]
- Efficacy in % (Venturia inaequalis): 100%

SMILES: CC(C)CC(C)c1ccccc1NC(=O)c1ccccc1I (centres unmarked) [drawing 13]
- Efficacy in % (Venturia inaequalis): 100%

SMILES: CC(C)CC(C)c1ccccc1NC(=O)c1ccccc1C(F)(F)F (centres unmarked) [drawing 14]
- Efficacy in % (Botrytis cinerea): 93%

SMILES: CC(C)CC(C)c1ccccc1NC(=O)c1ccccc1C(F)(F)F (centres unmarked) [drawing 20]
- pest or weed control at 500 g/ha (Puccinia recondita): 100%

SMILES: CC(C)CC(C)c1ccccc1NC(=O)c1ccccc1I (centres unmarked) [drawing 21]
- pest or weed control at 500 g/ha (Puccinia recondita): 100%

SMILES: CC(C)CC(C)c1ccccc1NC(=O)c1ccccc1Br (centres unmarked) [drawing 22]
- pest or weed control at 500 g/ha (Puccinia recondita): 100%

SMILES: CC(C)CC(C)c1ccccc1NC(=O)c1ccccc1Cl (centres unmarked) [drawing 23]
- pest or weed control at 500 g/ha (Puccinia recondita): 100%

SMILES: CC(CC(C)(C)C)c1ccccc1NC(=O)c1ccccc1Br (centres unmarked) [drawing 24]
- pest or weed control at 500 g/ha (Puccinia recondita): 100%

SMILES: CC(CC(C)(C)C)c1ccccc1NC(=O)c1ccccc1Cl (centres unmarked) [drawing 25]
- pest or weed control at 500 g/ha (Puccinia recondita): 100%

SMILES: CCC(C)(C)CC(C)c1ccccc1NC(=O)c1ccccc1C(F)(F)F (centres unmarked) [drawing 26]
- pest or weed control at 500 g/ha (Puccinia recondita): 100%

SMILES: CC(CC(C)(C)C)c1ccccc1NC(=O)c1ccccc1C(F)(F)F (centres unmarked) [drawing 27]
- pest or weed control at 500 g/ha (Puccinia recondita): 100%

SMILES: CC(CC(C)(C)C)c1ccccc1NC(=O)c1ccccc1I (centres unmarked) [drawing 28]
- pest or weed control at 500 g/ha (Puccinia recondita): 100%
